Measurements published in ChEMBL document CHEMBL1614632, “Trend analysis of a database of intravenous pharmacokinetic parameters in humans for 670 drug compounds” (Drug Metab Dispos, 2008).
Numbered stars: 1 amine (or outer) side, 2 acyl side, 3 side chain; on linkers, the order of the positions; unused ones are H or OH. Bridge positions count the residues as written; N and C are the ends. Square brackets hold non-standard residues; d marks the D form. Peptide text beside a SMILES is read from it. * marks the point of attachment. pTerphenylCO(4''-OnC5H11) = CCCCCOc1ccc(-c2ccc(-c3ccc(C(=O)*)cc3)cc2)cc1; Orn(4R-OH,5R-OH) = O=C([C@H](C[C@@H](O)[C@@H](O)N[*:3])N[*:1])[*:2]; hTyr(3S-OH,4S-OH) = N[C@H](C(=O)O)[C@H](O)[C@@H](O)c1ccc(O)cc1; Pro(3S-OH,4S-Me) = C[C@H]1CN[C@H](C(=O)O)[C@H]1O; Hyp = O=C(O)[C@@H]1C[C@@H](O)CN1

Experiments:
[1] = clinical; conditions: human, in vivo, iv, CL
[2] = clinical; conditions: human, in vivo, iv, t1/2
[3] = clinical; conditions: human, in vivo, iv
[4] = clinical; conditions: human, in vivo, iv, Vdss

Nc1ccn(C[C@@H](CO)OCP(=O)(O)O)c(=O)n1.O.O [CIDOFOVIR]
clearance [1]: 2.5 mL/min/kg
half-life [2]: 2.6 h
MRT [3]: 3.3 h
Vd [4]: 0.49 L/kg

CC(C)c1nc(N(C)S(C)(=O)=O)nc(-c2ccc(F)cc2)c1/C=C/[C@@H](O)C[C@@H](O)CC(=O)O [ROSUVASTATIN]
clearance [1]: 11 mL/min/kg
half-life [2]: 2 h
MRT [3]: 2.6 h
Vd [4]: 1.7 L/kg

CC(CCc1ccc2c(c1)OCO2)NCC(O)c1ccc(O)c(C(N)=O)c1 (stereo not drawn) [MEDROXALOL]
clearance [1]: 16 mL/min/kg
half-life [2]: 11 h
MRT [3]: 8.2 h
Vd [4]: 7.9 L/kg

O=C(O)CCCc1ccc(N(CCCl)CCCl)cc1 [CHLORAMBUCIL]
clearance [1]: 2.8 mL/min/kg
half-life [2]: 1.1 h
MRT [3]: 1.5 h
Vd [4]: 0.26 L/kg

Cc1ccnc2c1NC(=O)c1cccnc1N2C1CC1 [NEVIRAPINE]
clearance [1]: 0.3 mL/min/kg
half-life [2]: 53 h
MRT [3]: 81 h
Vd [4]: 1.3 L/kg

CCCN(CCC)S(=O)(=O)c1ccc(C(=O)O)cc1 [PROBENECID]
clearance [1]: 0.25 mL/min/kg
half-life [2]: 5.9 h
MRT [3]: 8.7 h
Vd [4]: 0.13 L/kg

CCC#CC[C@H](C)[C@H](O)C#C[C@@H]1[C@H]2C/C(=C/COCC(=O)O)C[C@H]2C[C@H]1O [CICAPROST]
clearance [1]: 3.8 mL/min/kg
half-life [2]: 1.1 h
MRT [3]: 0.35 h
Vd [4]: 0.08 L/kg

CC(C)NCC(O)COc1cccc2ccccc12 (stereo not drawn) [PROPRANOLOL]
clearance [1]: 12 mL/min/kg
half-life [2]: 3.4 h
MRT [3]: 4.3 h
Vd [4]: 3.1 L/kg

C#C[C@]1(OS(=O)(=O)O)CC[C@H]2[C@@H]3CCc4cc(O)ccc4[C@H]3CC[C@@]21C
clearance [1]: 1.3 mL/min/kg
half-life [2]: 9.3 h
MRT [3]: 7.8 h
Vd [4]: 0.61 L/kg

NC(=O)CN1CC(O)CC1=O (stereo not drawn) [OXIRACETAM]
clearance [1]: 1.8 mL/min/kg
half-life [2]: 7.5 h
MRT [3]: 4.9 h
Vd [4]: 0.55 L/kg

CNS(=O)(=O)CCc1ccc2[nH]cc(C3CCN(C)CC3)c2c1
clearance [1]: 6.6 mL/min/kg
half-life [2]: 6.6 h
MRT [3]: 6.1 h
Vd [4]: 2.4 L/kg

CN(C)CCc1c[nH]c2ccc(C[C@H]3COC(=O)N3)cc12 [ZOLMITRIPTAN]
clearance [1]: 6.7 mL/min/kg
half-life [2]: 3.6 h
MRT [3]: 4.6 h
Vd [4]: 1.8 L/kg

O=C1CN=C(c2ccccc2Cl)c2cc([N+](=O)[O-])ccc2N1 [CLONAZEPAM]
clearance [1]: 0.88 mL/min/kg
half-life [2]: 38 h
MRT [3]: 55 h
Vd [4]: 2.9 L/kg

O=C1CN=C(c2ccccc2)c2cc([N+](=O)[O-])ccc2N1 [NITRAZEPAM]
clearance [1]: 0.86 mL/min/kg
half-life [2]: 26 h
MRT [3]: 33 h
Vd [4]: 1.7 L/kg

CCS(=O)(=O)CCn1c([N+](=O)[O-])cnc1C [TINIDAZOLE]
clearance [1]: 0.6 mL/min/kg
half-life [2]: 13 h
MRT [3]: 16 h
Vd [4]: 0.59 L/kg

CN(C(=O)c1c(O)c2ccccc2n(C)c1=O)c1ccccc1 [ROQUINIMEX]
clearance [1]: 0.082 mL/min/kg
half-life [2]: 31 h
MRT [3]: 43 h
Vd [4]: 0.21 L/kg

Cc1cc(O)c2c(=O)c3c(O)cc(O)c4c5c(O)cc(O)c6c(=O)c7c(O)cc(CO)c8c1c2c(c34)c(c65)c78 [PSEUDOHYPERICIN]
clearance [1]: 0.62 mL/min/kg
half-life [2]: 20 h
MRT [3]: 15 h
Vd [4]: 0.56 L/kg

COc1nc(N)nc2c1ncn2[C@@H]1O[C@H](CO)[C@@H](O)[C@@H]1O [NELARABINE]
clearance [1]: 81 mL/min/kg
half-life [2]: 0.5 h
MRT [3]: 1 h
Vd [4]: 4.9 L/kg

Nc1nc(O)c2ncn(COC(CO)CO)c2n1 [GANCICLOVIR]
clearance [1]: 4.6 mL/min/kg
half-life [2]: 3.7 h
MRT [3]: 3.7 h
Vd [4]: 1 L/kg

Cn1cc[nH]c1=S [METHIMAZOLE]
clearance [1]: 3.7 mL/min/kg
half-life [2]: 2.4 h
MRT [3]: 3.8 h
Vd [4]: 0.86 L/kg

NS(=O)(=O)c1cc(C2(O)NC(=O)c3ccccc32)ccc1Cl (stereo not drawn) [CHLORTHALIDONE]
clearance [1]: 1.5 mL/min/kg
half-life [2]: 36 h
MRT [3]: 43 h
Vd [4]: 3.9 L/kg

COc1ccccc1N1CCN(CCCNc2cc(=O)n(C)c(=O)n2C)CC1
clearance [1]: 3.1 mL/min/kg
half-life [2]: 3.5 h
MRT [3]: 4 h
Vd [4]: 0.75 L/kg

S=P(N1CC1)(N1CC1)N1CC1 [THIOTEPA]
clearance [1]: 6.7 mL/min/kg
half-life [2]: 2.7 h
MRT [3]: 4 h
Vd [4]: 1.6 L/kg

N#Cc1ccc2c(c1)CN(S(=O)(=O)c1cccs1)[C@H](Cc1ccccc1)CN2Cc1cnc[nH]1 [BMS-214662]
clearance [1]: 9.6 mL/min/kg
half-life [2]: 1.6 h
MRT [3]: 1.4 h
Vd [4]: 0.84 L/kg

CN1CCN(C(=O)OC2c3nccnc3C(=O)N2c2ccc(Cl)cn2)CC1 (stereo not drawn) [ZOPICLONE]
clearance [1]: 3.3 mL/min/kg
half-life [2]: 5.2 h
MRT [3]: 6.6 h
Vd [4]: 1.3 L/kg

CCCCCOc1ccc(-c2ccc(-c3ccc(C(=O)N[C@H]4C[C@@H](O)[C@@H](O)NC(=O)[C@@H]5[C@@H](O)[C@@H](C)CN5C(=O)[C@H]([C@@H](C)O)NC(=O)[C@H]([C@H](O)[C@@H](O)c5ccc(O)cc5)NC(=O)[C@@H]5C[C@@H](O)CN5C(=O)[C@H]([C@@H](C)O)NC4=O)cc3)cc2)cc1 [ANIDULAFUNGIN] ({pTerphenylCO(4''-OnC5H11)}-[Orn(4R-OH,5R-OH)]T[Hyp][hTyr(3S-OH,4S-OH)]T[Pro(3S-OH,4S-Me)]; lactam 1-C)
clearance [1]: 0.21 mL/min/kg
half-life [2]: 40 h
MRT [3]: 45 h
Vd [4]: 0.57 L/kg

O=P1(NCCCl)OCCCN1CCCl (stereo not drawn) [IFOSFAMIDE]
clearance [1]: 1.1 mL/min/kg
half-life [2]: 6.6 h
MRT [3]: 9.4 h
Vd [4]: 0.62 L/kg

CCCCc1ncc(/C=C(\Cc2cccs2)C(=O)O)n1Cc1ccc(C(=O)O)cc1 [EPROSARTAN]
clearance [1]: 1.9 mL/min/kg
half-life [2]: 2.1 h
MRT [3]: 1.5 h
Vd [4]: 0.17 L/kg

O=C(O)Cc1ccccc1Nc1c(Cl)cccc1Cl [DICLOFENAC]
clearance [1]: 3.5 mL/min/kg
half-life [2]: 1.4 h
MRT [3]: 1 h
Vd [4]: 0.22 L/kg

CCN(CC)CCNC(=O)c1ccc(NS(C)(=O)=O)cc1 [SEMATILIDE]
clearance [1]: 3.7 mL/min/kg
half-life [2]: 3.8 h
MRT [3]: 3.7 h
Vd [4]: 0.82 L/kg

Cc1onc(-c2c(Cl)cccc2Cl)c1C(=O)N[C@@H]1C(=O)N2[C@@H]1SC(C)(C)[C@@H]2C(=O)O [DICLOXACILLIN]
clearance [1]: 2 mL/min/kg
half-life [2]: 0.88 h
MRT [3]: 0.92 h
Vd [4]: 0.11 L/kg

CCCCCNC(=N)N/N=C/c1c[nH]c2ccc(OC)cc12 [TEGASEROD]
clearance [1]: 18 mL/min/kg
half-life [2]: 11 h
MRT [3]: 4.9 h
Vd [4]: 5.3 L/kg

CCN(CC)CCCC(C)Nc1c2ccc(Cl)cc2nc2ccc(OC)cc12 (stereo not drawn) [QUINACRINE]
clearance [1]: 5.1 mL/min/kg
half-life [2]: 120 h
MRT [3]: 150 h
Vd [4]: 45 L/kg

COCc1c(C(C)C)nc(C(C)C)c(/C=C/[C@@H](O)C[C@@H](O)CC(=O)O)c1-c1ccc(F)cc1 [CERIVASTATIN]
clearance [1]: 2.9 mL/min/kg
half-life [2]: 1.8 h
MRT [3]: 1.8 h
Vd [4]: 0.33 L/kg

OC(CCN1CCCC1)(c1ccccc1)C1CCCCC1 (stereo not drawn) [PROCYCLIDINE]
clearance [1]: 0.86 mL/min/kg
half-life [2]: 12 h
MRT [3]: 14 h
Vd [4]: 0.74 L/kg

CS(=O)(=O)OCCCCOS(C)(=O)=O [BUSULFAN]
clearance [1]: 2.4 mL/min/kg
half-life [2]: 3.4 h
MRT [3]: 3.8 h
Vd [4]: 0.55 L/kg

O=C(NCCN1CCOCC1)c1ccc(Cl)cc1 [MOCLOBEMIDE]
clearance [1]: 10 mL/min/kg
half-life [2]: 1.5 h
MRT [3]: 1.8 h
Vd [4]: 1.1 L/kg

Cc1[nH]cnc1CN1CCc2c(c3ccccc3n2C)C1=O [ALOSETRON]
clearance [1]: 8.7 mL/min/kg
half-life [2]: 1.6 h
MRT [3]: 2.1 h
Vd [4]: 1.1 L/kg

Cc1ncc([N+](=O)[O-])n1CCO [METRONIDAZOLE]
clearance [1]: 0.85 mL/min/kg
half-life [2]: 7.1 h
MRT [3]: 7.8 h
Vd [4]: 0.4 L/kg

CC(C)(C)NC[C@H](O)COc1nsnc1N1CCOCC1 [TIMOLOL]
clearance [1]: 8.5 mL/min/kg
half-life [2]: 2.2 h
MRT [3]: 3 h
Vd [4]: 1.5 L/kg

O=C1NCC2(CCN(CCc3ccccc3)CC2)O1 [FENSPIRIDE]
clearance [1]: 2.6 mL/min/kg
half-life [2]: 14 h
MRT [3]: 19 h
Vd [4]: 3 L/kg

N[C@@H]1CN(c2c(F)cc3c(=O)c(C(=O)O)cn([C@@H]4C[C@@H]4F)c3c2Cl)CC12CC2 [SITAFLOXACIN ANHYDROUS]
clearance [1]: 3.7 mL/min/kg
half-life [2]: 6.6 h
MRT [3]: 6.7 h
Vd [4]: 1.5 L/kg

C[C@@H]1C(=O)O[C@H]2C[C@@]34[C@H]5C[C@@H](C(C)(C)C)[C@]36[C@@H](OC(=O)[C@@H]6O)O[C@@]4(C(=O)O5)[C@]21O [GINKGOLIDE A]
clearance [1]: 2.3 mL/min/kg
half-life [2]: 3.8 h
MRT [3]: 4.6 h
Vd [4]: 0.62 L/kg

C[C@H](/C=C/[C@H](C)C(C)(C)O)[C@H]1CC[C@H]2/C(=C/C=C3C[C@@H](O)C[C@H](O)C3)CCC[C@]12C [PARICALCITOL]
clearance [1]: 0.89 mL/min/kg
half-life [2]: 5.3 h
MRT [3]: 7.7 h
Vd [4]: 0.41 L/kg

CCCCc1nc(Cl)c(CO)n1Cc1ccc(-c2ccccc2-c2nn[nH]n2)cc1 [LOSARTAN]
clearance [1]: 8.2 mL/min/kg
half-life [2]: 1.8 h
MRT [3]: 0.75 h
Vd [4]: 0.37 L/kg

CN1[C@@H]2CC[C@H]1C[C@@H](OC(=O)c1c[nH]c3ccccc13)C2 [TROPISETRON]
clearance [1]: 26 mL/min/kg
half-life [2]: 5.6 h
MRT [3]: 6.3 h
Vd [4]: 9.7 L/kg

Nc1ccn([C@@H]2CO[C@H](CO)O2)c(=O)n1 [TROXACITABINE]
clearance [1]: 2.4 mL/min/kg
half-life [2]: 82 h
MRT [3]: 6.9 h
Vd [4]: 1 L/kg

O=C(O)[C@H]1/C(=C/CO)O[C@@H]2CC(=O)N21 [CLAVULANIC ACID]
clearance [1]: 3.1 mL/min/kg
half-life [2]: 0.9 h
MRT [3]: 1 h
Vd [4]: 0.22 L/kg

NCCCNc1ccc2c(CNCCO)nn3c4c(O)ccc(O)c4c(=O)c1c23
clearance [1]: 18 mL/min/kg
half-life [2]: 32 h
MRT [3]: 11 h
Vd [4]: 12 L/kg

CNCCC=C1c2ccccc2CCc2ccccc21 [NORTRIPTYLINE]
clearance [1]: 10 mL/min/kg
half-life [2]: 30 h
MRT [3]: 37 h
Vd [4]: 22 L/kg

COc1ccc2c3c1O[C@H]1C[C@@H](O)C=C[C@@]31CCN(C)C2 [GALANTAMINE]
clearance [1]: 5.6 mL/min/kg
half-life [2]: 5.3 h
MRT [3]: 6.8 h
Vd [4]: 2.3 L/kg

COc1cc2nc(N(C)CCCNC(=O)C3CCCO3)nc(N)c2cc1OC (stereo not drawn) [ALFUZOSIN]
clearance [1]: 5.9 mL/min/kg
half-life [2]: 4.8 h
MRT [3]: 4.2 h
Vd [4]: 1.5 L/kg
